Measured values from patent US20030027243A1, “Antifungal compounds and methods of use” (Anadys Pharmaceuticals, Inc., priority 2000, published 2003).

How the values were obtained:
Assay in all cases: Broth microdilution antifungal susceptibility test (NCCLS M27A based), MIC
Type in all cases: cell-based
Conditions in all cases: quality control range for control compounds, 35° C., 48 hours
[1] = system: Saccharomyces cerevisiae, e.g., CTY552
Text: (§1) Non-limiting examples of such procedures test the candidate inhibitor compounds for antifungal activity against a panel of three strains: C. albicans, S. cerevisiae , and A. nidulans. One such procedure is based on the NCCLS M27A method (The National Committee for Clinical Laboratory Standards, Reference Method for Broth Microdilution Antifungal Susceptibility Testing of Yeasts; approved standard, 1997) to measure minimum inhibitory concentrations (MICs) and minimum fungicidal concentrations (MFCs). An overview of this of this protocol follows.
(§2) 3. RPMI-1640: 10.4 g powdered media (Sigma R-6504, w/ glutamine & w/o bicarbonate); 2.0 g NaHCO3 (Sigma S-6297); 34.53 g MOPS buffer (Sigma M-6270). Dissolve powdered media and NaHCO3 in 900 ml distilled water. Add MOPS and stir until dissolved. Adjust pH to 7.0 using 1N NaOH. Bring final volume to 1 liter, filter sterilize, and store at 4° C.
(§3) 1. Yeasts: Yeasts (Saccharonyces cerevisiae and Candida albicans) are cultured on Sabouraud dextrose agar (SDA) plates in a 35° C. incubator. Strains on SDA plates are stored at 4° C. and used as working stock cultures. Working stock plates are prepared once a month from frozen stocks of cells. Inoculum for susceptibility testing is prepared from fresh 24 hour cultures. 5-10 colonies are scraped from the plate and suspended in three milliliters of sterile 0.85% saline (8.5 g/liter NaCl). The cell density of the solution is determined by measuring the absorbance in a spectrophotometer (Shimadzu UV-1201S UV-VIS Spectrophotometer) set at 600 nm. An absorbance value between 0.1 and 0.4 is required for an accurate reading. […]
(§4) Stock solutions of control compounds (1.6 mg/ml, Amphotericin B or Itraconazole) are initially diluted in medium to a concentration of 32 ug/ml while stock solutions of test compounds (typically 12.8 mg/ml) are diluted to 256 ug/ml. […] If a stock solution of a test compound is not at 12.8 mg/ml, the appropriate dilution must be calculated. […]

[2] = system: Candida albicans, e.g., ATCC 10231
Text: as §1, §2, §3, §4

[3] = system: Aspergillus nidulans, e.g., NRRL 194 (ATCC 38163)
Text: as §1
3. RPMI-1640: 10.4 g powdered media (Sigma R-6504, w/ glutamine & w/o bicarbonate); 2.0 g NaHCO3 (Sigma S-6297); 34.53 g MOPS buffer (Sigma M-6270). Dissolve powdered media and NaHCO3 in 900 ml distilled water. Add MOPS and stir until dissolved. Adjust pH to 7.0 using 1N NaOH. […]
2. […] The turbidity of the solution is determined by measuring the absorbance in a spectrophotometer (Shimadzu UV-1201S UV-VIS Spectrophotometer) set at 600 nm. An absorbance value between 0.1 and 0.4 is required for an accurate reading. […]
as §4

Compound | Acceptable MIC range values [1] [mg/L] | Acceptable MIC range values [2] [mg/L] | Acceptable MIC range values [3] [mg/L]
C[C@@H]1[C@H](O)[C@@H](C)/C=C/C=C/C=C/C=C/C=C/C=C/C=C/[C@H](O[C@@H]2O[C@H](C)[C@@H](O)[C@H](N)[C@@H]2O)C[C@@H]2O[C@](O)(C[C@@H](O)C[C@@H](O)[C@H](O)CC[C@@H](O)C[C@@H](O)CC(=O)O[C@H]1C)C[C@H](O)[C@H]2C(=O)O [Am B, Amphotericin B] | 0.25 to 1.0 | 0.25 to 1.0 | 0.5 to 2.0
CCC(C)n1ncn(-c2ccc(N3CCN(c4ccc(OCC5COC(Cn6cncn6)(c6ccc(Cl)cc6Cl)O5)cc4)CC3)cc2)c1=O (centres unmarked) [Itraconazole] | – | 0.25 to 1.0 | 0.25 to 1.0
